According to patent publication US10450260B2, “NO- and H2S-releasing compounds” (RESEARCH FOUNDATION OF THE CITY UNIVERSITY OF NEW YORK, priority 2011, dated 2019):
“Also recorded” adds a separate entry of the source.

Legend:
HT-29 cells xenograft = assay: HT-29 tumor xenograft in athymic nude mice; type: in vivo, mouse
Method: Male athymic nude (NU/NU) mice (N=8), age 5 weeks, were purchased from Charles River Laboratories, Inc., (Wilmington, Mass.). HT-29 cells (2×10^6) suspended in 50% v/v Matrigel (BD Biosciences, San Jose, Calif.) were inoculated subcutaneously in the right flanks of each mouse. When the tumors reached an average sizes of ˜80 mm^3, the mice were randomly divided (N=4/group) and gavaged daily for 18 days with either vehicle (1% methylcelloluse) or NOSH-1 (100 mg/kg body weight). Tumor size (length and width) was measured at 3 day intervals with an electronic caliper from which tumor volume was calculated as length×width^2/2. The mice were weighed every 3 days and were closely monitored for signs of toxicity.

COX-2 = assay: Western blot of COX-2 in paw exudates; type: in vivo, rat; conditions: NOSH-1 at 2 doses one hour before carrageenan
Method: (§1) Exudates (oedema fluid) and some tissue were homogenized in lysis buffer (0.1% Triton X-100, 50 μM pepstatin, 0.2 mM leupeptin, 1 μg/mL aprotinin, 10 mg/ml phenylmethylsulfonyl fluoride, 50 mM Tris, and 10 mM EDTA). Samples were then centrifuged, and the protein concentration of the supernatant was determined by colorimetric assay (Bio-Rad, Hercules, Calif.). Protein (30 μg) was separated on a 10% polyacrylamide gel and then transferred to a nitrocellulose membrane (Bio-Rad, Hercules, Calif.). Proteins were probed with monoclonal mouse antibody against COX-1 and COX-2 (1:500; Cayman Chemical, Ann Arbor, Mich.). The membrane was then incubated with a goat anti-mouse IgG secondary antibody conjugated to horseradish peroxidase (Santacruz Biotechnology, Santa Cruz, Calif.). A chemiluminescence reagent (Amersham Pittsburg, Pa.) was added to visualize the labeling according to the manufacturer's instructions.

COX-1 = assay: Western blot of COX-1 in paw exudates; type: in vivo, rat; conditions: NOSH-1 at 2 doses one hour before carrageenan
Method: as §1

HT-29 colon cancer cells [1] = assay: Cell proliferation, PCNA expression; type: cell-based, human; conditions: 24 hours
Method: (§2) Growth inhibition was measured using a colorimetric MTT assay kit (Roche, Indianapolis, Ind.). Proliferation (PCNA) was assessed using an ELISA kit from Calbiochem, (La Jolla, Calif.). Cell cycle phase distributions and apoptosis of control and treated cells were determined as previously described. All methods are described in Chattopadhyay et al., Biochemical Pharmacology, 2012, 83(6), 715-722.

[2] = tested on: MCF-7 (ER+) breast cancer cell xenograft; assay: MCF-7 xenograft in athymic nude mice; type: in vivo, mouse
Source text: (§3) Male athymic nude (NU/NU) mice, age 5 weeks, were purchased from Charles River Laboratories, Inc., (Wilmington, Mass.) and were housed according to institutional and NIH guidelines.
(§4) Human colon (SW480), Breast (MCF-7, MDA-MB-231), and pancreas (MIA PaCa2) cancer cells (2×10^6) suspended in Matrigel (BD Biosciences, San Jose, Calif.) 50% v/v were inoculated subcutaneously in the right flanks of each mouse (10 mice per group) using a 1-mL syringe and 22-gauge needles. After 10 days the animals from each implanted cell line were randomly divided into 2 groups (N=5/group) and gavaged daily with either vehicle (1% methylcelloluse) or NOSH-naproxen (100 mg/kg) or NOSH (100 mg/kg), the ADT-OH-butyl nitrate compound that releases H2S and NO, in the case of colon cancer xenografts; or NOSH-aspirin (100 mg/kg body weight) in the breast and pancreatic cancers groups. The tumor size was measured every other day using electronic calipers, the tumor volumes were calculated using the following formula: length×width^2/2. The weights of the mice were also recorded every 3 days. Twenty-seven (27) to thirty (30) days post inoculation, the mice were sacrificed, the tumors collected, weighed, and photographed.

[3] = tested on: MIA PaCa2 pancreatic cancer cell xenograft; assay: MIA PaCa2 xenograft in athymic nude mice; type: in vivo, mouse
Source text: as §3, §4

HT-29 colon cancer cells [4] = assay: Cell cycle analysis, PI staining and flow cytometry; type: cell-based, human
Method: as §2

HT-29 cells = assay: LDH release assay; type: cell-based, human
Method: For determination of lactate dehydrogenase (LDH) activity, HT-29 cells (1×10^5 cells/well) were incubated in 96-well plates with different concentrations of NOSH-1. After incubation for 2, 4, 8, 12 and 24 h, LDH activity in the supernatant was assessed using the LDH Cytotoxicity Assay Kit (Cayman Chemical Ann Arbor, Mich.), according to the manufacturer's instructions. Cytotoxicity was calculated as a percentage based on the LDH activity released from cells that had been treated with NOSH-1 compared with LDH activity from cultures incubated with Triton X-100. The % of LDH release was determined using the formula (E−C)/(T−C)×100, where E is the experimental absorbance of cell cultures, C is the control absorbance of cell-free culture medium, and T is the absorbance corresponding to the maximal (100%) LDH release of Triton-lysed cells.^1

[5] = tested on: MDA-MB-231 (ER−) breast cancer cell xenograft; assay: MDA-MB-231 xenograft in athymic nude mice; type: in vivo, mouse
Source text: as §3, §4

[6] = 100 mg/kg daily, day 27, vs control

Compound: O=C(CCCO[N+](=O)[O-])Oc1ccccc1C(=O)Oc1ccc(-c2cc(=S)ss2)cc1 [NOSH-1, 4-(3-thioxo-3H-1,2-dithiol-5-yl)phenyl 2-((4-(nitrooxy)butanoyl)oxy)benzoate]
- signs of toxicity (HT-29 cells xenograft; 100 mg/kg daily for 18 days): no overt signs of toxicity
- mean reduction of tumor volume (HT-29 cells xenograft; 100 mg/kg daily for 18 days, vs control): 85%
- mean tumor volume (HT-29 cells xenograft; 100 mg/kg daily gavage for 18 days, control 2300±200): 350±35 mm^3
- tumor volume versus vehicle (FIG. 7B) (HT-29 cells xenograft; 6 days after treatment to sacrifice, P<0.05 day 6, P<0.01 days 9-18): significantly reduced tumor volume
- average weight of the mice, beginning of the study (HT-29 cells xenograft; treated mice, 100 mg/kg daily): 21.7 ± 0.82 g
- average weight of the mice, end of the study (HT-29 cells xenograft; treated mice, 100 mg/kg daily for 18 days): 27.2 ± 1.1 g
- COX-2 expression in paw exudates induced by carrageenan (COX-2): inhibited induction; also recorded: dose-dependently inhibited
- COX-1 expression in paw exudates induced by carrageenan (COX-1): inhibited induction; also recorded: inhibited to the same extent
- reduction of PCNA expression (HT-29 colon cancer cells [1]; 0.5×IC50 (25 nM)): 18.2±1.5%
- reduction of PCNA expression (HT-29 colon cancer cells [1]; 1×IC50 (50 nM)): 50.3±3.2%
- reduction of PCNA expression (HT-29 colon cancer cells [1]; 2×IC50 (100 nM)): 77.4±2.2%
- mean tumor volume ([2]; 100 mg/kg daily gavage, end of study, control 935±93): 48±9 mm^3
- reduction of tumor mass [2, 6]: 55%
- average tumor mass ([2]; 100 mg/kg daily, day 27, control 0.46±0.056): 0.21 ± 0.035 g
- mean reduction of tumor volume ([2]; 100 mg/kg daily, vs control): 98%
- mean tumor volume ([3]; 100 mg/kg daily gavage, end of study, control 3265±476): 285±117 mm^3
- reduction of tumor mass ([3]; 100 mg/kg daily, day 30, vs control): 75%
- average tumor mass ([3]; 100 mg/kg daily, day 30, control 2.45±2.7): 0.61 ± 0.29 g
- mean reduction of tumor volume ([3]; 100 mg/kg daily, vs control): 91%
- cell population in G2/M phase (HT-29 colon cancer cells [4]; 1×IC50, 24 hours, control 26.9±2.2): 15.4±2.6%
- cell population in S phase (HT-29 colon cancer cells [4]; 1×IC50, 24 hours, control 30.2±2.3%): 22.6±1.3%
- cell population in G0/G1 phase (HT-29 colon cancer cells [4]; 1×IC50, 24 hours, control 42.9±2%): 62.0±2.3%
- cell population in G0/G1 phase (HT-29 colon cancer cells [4]; 2×IC50, 24 hours): 74.2±1.2%
- cell population in G2/M phase (HT-29 colon cancer cells [4]; 2×IC50, 24 hours): 9.5±1.8%
- cell population in S phase (HT-29 colon cancer cells [4]; 2×IC50, 24 hours): 16.3±1.2
- LDH release (HT-29 cells; 4-times its IC50, 24 hours): less than 10%
- LDH release (HT-29 cells; 4-times its IC50, shorter durations (2, 4, 6, 8 hours)): 1-5%
- LDH release (HT-29 cells; at its IC50, shorter durations (2, 4, 6, 8 hours)): 0.5-4%
- mean tumor volume ([5]; 100 mg/kg daily gavage, end of study, control 1886±200): 35±9 mm^3
- reduction of tumor mass [5, 6]: 91%
- average tumor mass ([5]; 100 mg/kg daily, day 27, control 1.2±0.33): 0.11 ± 0.058 g
- mean reduction of tumor volume ([5]; 100 mg/kg daily, vs control): 98%
